Results published in ChEMBL document CHEMBL1201862, “PubChem BioAssay data set” (2004).
The source made the active and inactive calls.

Tests used:
Format in all cases: functional
Hexokinase HKDC1 = biological target: T1, Hexokinase HKDC1 (Homo sapiens, UniProt Q2TB90); test: HKDC1 hexokinase activators, dose response, biochemical, W721R variant (AID 504730)
T1 sequence (Q2TB90 whole entry): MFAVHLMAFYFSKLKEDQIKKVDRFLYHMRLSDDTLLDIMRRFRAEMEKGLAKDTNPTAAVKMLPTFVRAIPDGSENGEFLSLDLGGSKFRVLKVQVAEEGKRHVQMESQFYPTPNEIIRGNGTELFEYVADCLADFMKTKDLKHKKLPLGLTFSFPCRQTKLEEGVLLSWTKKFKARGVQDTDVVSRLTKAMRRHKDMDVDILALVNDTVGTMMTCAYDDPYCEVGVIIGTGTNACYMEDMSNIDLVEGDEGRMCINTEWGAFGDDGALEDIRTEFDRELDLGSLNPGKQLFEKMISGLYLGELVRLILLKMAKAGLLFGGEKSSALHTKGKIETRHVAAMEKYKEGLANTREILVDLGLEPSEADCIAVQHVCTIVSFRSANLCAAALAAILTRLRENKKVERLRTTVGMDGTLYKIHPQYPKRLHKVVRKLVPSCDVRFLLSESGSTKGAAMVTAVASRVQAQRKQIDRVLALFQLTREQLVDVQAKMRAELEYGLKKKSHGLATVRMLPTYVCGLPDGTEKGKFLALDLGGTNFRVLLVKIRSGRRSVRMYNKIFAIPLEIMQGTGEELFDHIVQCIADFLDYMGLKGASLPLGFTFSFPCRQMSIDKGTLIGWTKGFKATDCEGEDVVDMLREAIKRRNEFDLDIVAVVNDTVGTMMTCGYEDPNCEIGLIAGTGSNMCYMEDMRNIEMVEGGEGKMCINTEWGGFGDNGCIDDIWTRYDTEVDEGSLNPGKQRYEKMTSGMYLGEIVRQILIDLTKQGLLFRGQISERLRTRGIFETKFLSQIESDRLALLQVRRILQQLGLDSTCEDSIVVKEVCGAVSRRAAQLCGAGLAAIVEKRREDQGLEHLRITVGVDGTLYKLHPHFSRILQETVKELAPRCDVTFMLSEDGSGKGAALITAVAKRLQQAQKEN

Hexokinase-1 = biological target: T2, Hexokinase-1 (Homo sapiens, UniProt P19367); test: hexokinase 1 activators, dose response, selectivity assay for HKDC1 activator project, biochemical (AID 504762)
T2 sequence (P19367 whole entry): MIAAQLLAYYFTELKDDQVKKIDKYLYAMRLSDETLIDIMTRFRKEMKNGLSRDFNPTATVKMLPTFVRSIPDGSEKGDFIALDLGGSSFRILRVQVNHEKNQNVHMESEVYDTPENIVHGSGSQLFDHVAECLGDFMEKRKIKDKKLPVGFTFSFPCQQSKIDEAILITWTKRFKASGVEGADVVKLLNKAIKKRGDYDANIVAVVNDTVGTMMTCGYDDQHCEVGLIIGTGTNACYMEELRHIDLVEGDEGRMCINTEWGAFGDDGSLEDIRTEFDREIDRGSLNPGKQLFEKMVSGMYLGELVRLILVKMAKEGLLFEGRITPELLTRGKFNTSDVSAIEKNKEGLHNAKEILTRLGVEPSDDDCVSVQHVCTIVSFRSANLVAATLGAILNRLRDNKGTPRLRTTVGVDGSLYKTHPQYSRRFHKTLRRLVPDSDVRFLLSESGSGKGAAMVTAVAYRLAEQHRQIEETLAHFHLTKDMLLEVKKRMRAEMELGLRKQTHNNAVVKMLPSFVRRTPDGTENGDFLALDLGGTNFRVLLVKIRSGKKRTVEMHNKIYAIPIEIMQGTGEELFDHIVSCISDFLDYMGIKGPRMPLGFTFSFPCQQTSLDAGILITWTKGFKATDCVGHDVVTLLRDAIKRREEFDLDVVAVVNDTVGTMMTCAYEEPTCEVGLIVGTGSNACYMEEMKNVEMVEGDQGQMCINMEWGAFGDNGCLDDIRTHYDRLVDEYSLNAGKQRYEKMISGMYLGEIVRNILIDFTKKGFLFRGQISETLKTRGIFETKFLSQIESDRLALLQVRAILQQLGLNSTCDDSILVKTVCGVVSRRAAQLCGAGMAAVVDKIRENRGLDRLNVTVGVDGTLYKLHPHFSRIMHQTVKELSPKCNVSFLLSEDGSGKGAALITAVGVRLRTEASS

[1] = growth suppression of PTEN-null colon cells, dose response, cell-based, HCT116 PTEN knockout (AID 1047);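 also: HCT116 colon tumor cells with PTEN knocked out; cells exposed to compound for 60 hours before readout; potency for loss of cell viability measured by luminescence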
[2] = growth suppression of beta-catenin-knockout colon cells, dose response, cell-based, HCT116, human colon tumor (AID 1045);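 also: HCT116 colon tumor cells with beta catenin knocked out; cells exposed to compound for 60 hours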

Which EC50 (Hexokinase HKDC1) does the source give for `Cn1cnnc1SC1c2cccc3cccc(c23)C1NS(=O)(=O)c1ccccc1` (stereo unspecified) here?
Its EC50 is 46.7 µM (inactive).

And the EC50 (Hexokinase-1)?
The EC50 was 24.7 µM (inactive).

For `Fc1ccc(NC2=NN=C(c3cc(F)ccc3F)CS2)cc1`, which EC50 [1] is on record?
Its EC50 is 18.5 µM (active).

And the EC50 (Hexokinase HKDC1)?
The EC50 was 35.7 µM (inactive).

And the EC50 [2]?
Its EC50 is 20.1 µM (active).

And the EC50 (Hexokinase-1)?
Its EC50 is 28.9 µM (inactive).
